Reference: ChEMBL document CHEMBL3102737, “Synthesis of novel pyrano[3,2-f]quinoline, phenanthroline derivatives and studies of their interactions with proteins: an application in mammalian cell imaging” (Eur J Med Chem, 2014)

system: HeLa; assay: Protein binding in human HeLa cells at 1 mM incubated for 10 mins under dark by fluorescence microscopic analysis; format: ADME, cell-based; conditions: 1000 µM

SMILES | PB
Cn1c(=O)ccc2c3c(ccc21)NC(C)(C)CC3=O | Not Active
CN1c2ccc3c(ccc(=O)n3C)c2C(=O)CC1(C)C | Active
CCn1c(=O)ccc2c3c(ccc21)NC(C)(C)CC3=O | Active
CCn1c(=O)ccc2c3c(ccc21)N(C)C(C)(C)CC3=O | Active

Second part, the compound after the results:

PB | SMILES
Active | CCN1c2ccc3oc(=O)ccc3c2C(=O)CC1(C)C
Active | CCN1c2ccc3c(ccc(=O)n3C)c2C(=O)CC1(C)C
Active | CCN1c2ccc3c(ccc(=O)n3CC)c2C(=O)CC1(C)C
Active | CC1(C)CC(=O)c2c(ccc3oc(=O)ccc23)N1
Not Active | CN1c2ccc3oc(=O)ccc3c2C(=O)CC1(C)C
